We go through 17 molecules from patent US20240140957A1, “BRIDGED COMPOUNDS AS KRAS G12D INHIBITOR AND DEGRADER AND THE USE THEREOF” (BeiGene Switzerland GmbH, priority 2021, published 2024).

One assay has as its target WT KRAS:SOS1 (Homo sapiens, UniProt P01116). Nature of the assay: KRAS WT:SOS1 GDP TR-FRET assay. In kind it is binding. The conditions noted are these: GST-WT KRAS 37.5 nM, GDP 10 μM, His-SOS1 18 nM. The procedure: (§1) KRAS:SOS1 GDP TR-FRET Assay
(§2) This assay was used to identify compounds which competitively interact with the binding of KRAS protein to SOS1 in the presence of GDP. […] All protein and reaction solutions were prepared in assay buffer containing DPBS pH7.5, 0.1% BSA, and 0.05% Tween 20. Purified GST-tagged WT KRAS or KRAS G12D protein (37.5 nM final assay concentration) and GDP (Sigma, 10 μM final assay concentration) mixture, a serially diluted compound (top final concentration is 50 μM or 10 uM, 3-fold serially diluted, 10 points) and His-tagged SOS1 protein (18 nM final assay concentration) were added into the assay plates (384 well microplate, black, Corning) sequentially. Plates are incubated at 24° C. for 1 hr. Following the incubation, Mab Anti-GST-Tb cryptate (Cisbio) and […] (Cisbio) were added and further incubated at 24° C. for another 1 hr. The TR-FRET signals (ex337 nm, em665 nm/620 nm) were read on BMG PHERAstar FSX instrument. The inhibition percentage of KRAS protein binding with SOS1 in presence of increasing concentrations of compounds was calculated based on the ratio of fluorescence at 665 nm to that at 620 nm. The IC50 value of each compound was calculated from fitting the data to the four-parameter logistic model by Dotmatics.
Background: TR-FRET usually uses a lanthanide donor and a delayed reading to cut background.

The test system of assay [1] is pERK1/2 (THR202/TYR204) in AsPC-1 cells. Nature of the assay: pERK Assay (HTRF) in AsPC-1 cells. The assay is classed as cell-based. To be noted: Homo sapiens, ASPC1, 2 h compound treatment. The procedure: AsPC-1 cell line was used in this study. […] 30000 cells per well were seeded into a 96-well plate and incubated overnight. […] After 2 h compound treatment, cells were lysed, and the pERK1/2 (THR202/TYR204) level in the cell lysates was detected by HTRF kit (Cisbio). In brief, a total of 16 μL of cell lysate from each well of a 96-well plate was transferred to a 384-well white assay plate. Lysate from each well was incubated with 2 μL of Eu3+-cryptate (donor) labeled anti-phospho-ERK1/2 and 2 μL of D2 (acceptor) labeled anti-phospho-ERK1/2 antibodies (Cisbio) overnight in dark at room temperature. When donor and acceptor are in close proximity, excitation of the donor with laser triggers a Fluorescence Resonance Energy Transfer (FRET) towards the acceptor, which in turn fluoresces at 655 nm wavelength. FRET signals were measured using a PHERAstar FSX reader (BMG Labtech).

The target of a further assay is KRAS G12D:SOS1 (Homo sapiens, UniProt P01116, G12D). Nature of the assay: KRAS G12D:SOS1 GDP TR-FRET assay. In kind it is binding. To be noted: GST-KRAS G12D 37.5 nM, GDP 10 μM, His-SOS1 18 nM. The procedure: as §1, §2

The IC50 is the concentration needed to halve the response being measured. The low end stands for higher potency, the high end for lower potency.

KRAS G12D:SOS1, sequence (P01116 1-188 isoform P01116-2 G12D): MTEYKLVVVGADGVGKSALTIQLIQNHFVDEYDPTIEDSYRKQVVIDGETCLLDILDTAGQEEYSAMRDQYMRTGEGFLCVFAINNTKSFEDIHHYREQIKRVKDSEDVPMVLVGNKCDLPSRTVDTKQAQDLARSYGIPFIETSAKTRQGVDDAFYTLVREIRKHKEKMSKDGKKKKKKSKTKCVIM
WT KRAS:SOS1, sequence (P01116 1-188 isoform P01116-2): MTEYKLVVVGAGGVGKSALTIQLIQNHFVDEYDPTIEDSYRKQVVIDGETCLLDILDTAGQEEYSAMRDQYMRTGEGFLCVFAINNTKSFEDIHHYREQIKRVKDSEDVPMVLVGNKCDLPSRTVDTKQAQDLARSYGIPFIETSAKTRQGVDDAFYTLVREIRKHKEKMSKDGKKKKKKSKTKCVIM

On to `C[C@@H](CN1CCC(F)(F)CC1)Oc1nc(N2CC3CCC(C2)N3)c2cc(Cl)c(-c3ccc(F)c4sc(N)nc34)c(F)c2n1` [Example E17, 4-(4-(3,8-diazabicyclo[3.2.1]octan-3-yl)-6-chloro-2-(((S)-1-(4,4-difluoropiperidin-1-yl)propan-2-yl)oxy)-8-fluoroquinazolin-7-yl)-7-fluorobenzo[d]thiazol-2-amine], for which the IC50 on WT KRAS:SOS1 worked out at 785 nM; in assay [1], 2880 nM; against KRAS G12D:SOS1, 4.2 nM.

As for `C[C@@H](CN1CCCCC1)Oc1nc(N2C3CCC2CNC3)c2cc(Cl)c(-c3ccc(F)c4sc(N)nc34)c(F)c2n1` [Example E18, 4-(4-(3,8-diazabicyclo[3.2.1]octan-8-yl)-6-chloro-8-fluoro-2-(((S)-1-(piperidin-1-yl)propan-2-yl)oxy)quinazolin-7-yl)-7-fluorobenzo[d]thiazol-2-amine], the half-inhibitory concentration (IC50) is 35 nM at WT KRAS:SOS1, 528 nM in assay [1] and 2.5 nM at KRAS G12D:SOS1.

Take `C[C@@H](CN1CCC(F)(F)CC1)Oc1nc(N2C3CCC2CNC3)c2cc(Cl)c(-c3ccc(F)c4sc(N)nc34)c(F)c2n1` [Example E19, 4-(4-(3,8-diazabicyclo[3.2.1]octan-8-yl)-6-chloro-2-(((S)-1-(4,4-difluoropiperidin-1-yl)propan-2-yl)oxy)-8-fluoroquinazolin-7-yl)-7-fluorobenzo[d]thiazol-2-amine]: the IC50 against WT KRAS:SOS1 came to 566 nM; in assay [1], 3410 nM; on KRAS G12D:SOS1, 10 nM.

In the case of `C[C@@H](CN1CCC(F)(F)C1)Oc1nc(N2CC3CCC(C2)N3)c2cc(Cl)c(-c3ccc(F)c4sc(N)nc34)c(F)c2n1` [Example E20, 4-(4-(3,8-diazabicyclo[3.2.1]octan-3-yl)-6-chloro-2-(((S)-1-(3,3-difluoropyrrolidin-1-yl)propan-2-yl)oxy)-8-fluoroquinazolin-7-yl)-7-fluorobenzo[d]thiazol-2-amine], the IC50 at WT KRAS:SOS1 is over 10000 nM; in assay [1], 7260 nM; against KRAS G12D:SOS1 it was 25 nM.

Consider `CC(CN1CCCCC1)Oc1nc(N2CC3COCC(C2)N3)c2cc(Cl)c(-c3ccc(F)c4sc(N)nc34)c(F)c2n1` (stereo not drawn) [Example E21, 4-(4-(3-oxa-7,9-diazabicyclo[3.3.1]nonan-7-yl)-6-chloro-8-fluoro-2-((1-(piperidin-1-yl)propan-2-yl)oxy)quinazolin-7-yl)-7-fluorobenzo[d]thiazol-2-amine], for which the results for the IC50 (on WT KRAS:SOS1; in assay [1]; on KRAS G12D:SOS1) were 338 nM, over 10000 nM and 44 nM, respectively.

Regarding `C[C@@H](CN1CCS(=O)(=O)CC1)Oc1nc(N2CC3CCC(C2)N3)c2cc(Cl)c(-c3ccc(F)c4sc(N)nc34)c(F)c2n1` [Example E22, 4-((2S)-2-((7-(2-amino-7-fluorobenzo[d]thiazol-4-yl)-4-(3,8-diazabicyclo[3.2.1]octan-3-yl)-6-chloro-8-fluoroquinazolin-2-yl)oxy)propyl)thiomorpholine 1,1-dioxide], the IC50 was over 3330 nM on WT KRAS:SOS1, 7700 nM in assay [1] and 27 nM on KRAS G12D:SOS1.

Consider `C[C@@H](CN1CCC1)Oc1nc(N2CC3CCC(C2)N3)c2cc(Cl)c(-c3ccc(F)c4sc(N)nc34)c(F)c2n1` [Example E23, 4-(2-(((S)-1-(azetidin-1-yl)propan-2-yl)oxy)-4-(3,8-diazabicyclo[3.2.1]octan-3-yl)-6-chloro-8-fluoroquinazolin-7-yl)-7-fluorobenzo[d]thiazol-2-amine], for which the values for the half-maximal inhibitory concentration (IC50) (on WT KRAS:SOS1; in assay [1]; on KRAS G12D:SOS1) were 146 nM, 5220 nM and 3.9 nM, respectively.

As for `C[C@@H](CN1CCC(F)C1)Oc1nc(N2CC3CCC(C2)N3)c2cc(Cl)c(-c3ccc(F)c4sc(N)nc34)c(F)c2n1` (stereo partly drawn) [Example E24, 4-(4-(3,8-diazabicyclo[3.2.1]octan-3-yl)-6-chloro-8-fluoro-2-(((2S)-1-(3-fluoropyrrolidin-1-yl)propan-2-yl)oxy)quinazolin-7-yl)-7-fluorobenzo[d]thiazol-2-amine], the results for the half-inhibitory concentration (IC50) (against WT KRAS:SOS1; in assay [1]; against KRAS G12D:SOS1) were 210 nM, 1270 nM and 2.8 nM, respectively.

`C[C@@H](CN1CCC(F)CC1)Oc1nc(N2CC3CCC(C2)N3)c2cc(Cl)c(-c3ccc(F)c4sc(N)nc34)c(F)c2n1` [Example E25]: the IC50 on WT KRAS:SOS1 stood at 88 nM; in assay [1], 860 nM; at KRAS G12D:SOS1 it was 2.2 nM.

`C[C@@H](CN1CCC(C#N)CC1)Oc1nc(N2CC3CCC(C2)N3)c2cc(Cl)c(-c3ccc(F)c4sc(N)nc34)c(F)c2n1` [Example E26, 1-((2S)-2-((7-(2-amino-7-fluorobenzo[d]thiazol-4-yl)-4-(3,8-diazabicyclo[3.2.1]octan-3-yl)-6-chloro-8-fluoroquinazolin-2-yl)oxy)propyl)piperidine-4-carbonitrile]: the values for the IC50 (against WT KRAS:SOS1; in assay [1]; against KRAS G12D:SOS1) were 140 nM, 819 nM and 2.9 nM, respectively.

On to `CC1CCCCN1C[C@H](C)Oc1nc(N2CC3CCC(C2)N3)c2cc(Cl)c(-c3ccc(F)c4sc(N)nc34)c(F)c2n1` (stereo partly drawn) [Example E27, 4-(4-(3,8-diazabicyclo[3.2.1]octan-3-yl)-6-chloro-8-fluoro-2-(((2S)-1-(2-methylpiperidin-1-yl)propan-2-yl)oxy)quinazolin-7-yl)-7-fluorobenzo[d]thiazol-2-amine], for which the values for the concentration for half-maximal inhibition (IC50) (on WT KRAS:SOS1; in assay [1]; against KRAS G12D:SOS1) were 57 nM, 518 nM and 2.9 nM, respectively.

Regarding `CN1C[C@H](O)C[C@H]1COc1nc(N2CC3CCC(C2)N3)c2cc(Cl)c(-c3ccc(F)c4sc(N)nc34)c(F)c2n1` [Example E28, (3R,5S)-5-(((7-(2-amino-7-fluorobenzo[d]thiazol-4-yl)-4-(3,8-diazabicyclo[3.2.1]octan-3-yl)-6-chloro-8-fluoroquinazolin-2-yl)oxy)methyl)-1-methylpyrrolidin-3-ol], the IC50 against WT KRAS:SOS1 came out at 30 nM; in assay [1] it was 8860 nM; at KRAS G12D:SOS1, 3 nM.

Regarding `C[C@@H](CN1CCOCC1)Oc1nc(N2CC3CCC(C2)N3)c2cc(Cl)c(-c3ccc(F)c4sc(N)nc34)c(F)c2n1` [Example E29, 4-(4-(3,8-diazabicyclo[3.2.1]octan-3-yl)-6-chloro-8-fluoro-2-(((S)-1-morpholinopropan-2-yl)oxy)quinazolin-7-yl)-7-fluorobenzo[d]thiazol-2-amine], the IC50 is 453 nM against WT KRAS:SOS1, 903 nM in assay [1] and 5.9 nM against KRAS G12D:SOS1.

For `C[C@@H](CN1CCC(F)CC1)Oc1nc(N2C3CCC2CNC3)c2cc(Cl)c(-c3ccc(F)c4sc(N)nc34)c(F)c2n1` [Example E30, 4-(4-(3,8-diazabicyclo[3.2.1]octan-8-yl)-6-chloro-8-fluoro-2-(((S)-1-(4-fluoropiperidin-1-yl)propan-2-yl)oxy)quinazolin-7-yl)-7-fluorobenzo[d]thiazol-2-amine], the IC50 amounted to 173 nM on WT KRAS:SOS1, 1810 nM in assay [1] and 12 nM at KRAS G12D:SOS1.

In the case of `C[C@@H](CN1CC(F)C1)Oc1nc(N2CC3CCC(C2)N3)c2cc(Cl)c(-c3ccc(F)c4sc(N)nc34)c(F)c2n1` [Example E31, 4-(4-(3,8-diazabicyclo[3.2.1]octan-3-yl)-6-chloro-8-fluoro-2-(((S)-1-(3-fluoroazetidin-1-yl)propan-2-yl)oxy)quinazolin-7-yl)-7-fluorobenzo[d]thiazol-2-amine], the concentration for half-maximal inhibition (IC50) against WT KRAS:SOS1 was determined as 1080 nM; in assay [1], 1900 nM; at KRAS G12D:SOS1, 11 nM.

Take `C[C@@H](CN1CC=CCC1)Oc1nc(N2CC3CCC(C2)N3)c2cc(Cl)c(-c3ccc(F)c4sc(N)nc34)c(F)c2n1` [Example E33, 4-(4-(3,8-diazabicyclo[3.2.1]octan-3-yl)-6-chloro-2-(((S)-1-(3,6-dihydropyridin-1(2H)-yl)propan-2-yl)oxy)-8-fluoroquinazolin-7-yl)-7-fluorobenzo[d]thiazol-2-amine]: the IC50 against WT KRAS:SOS1 worked out at 143 nM; in assay [1], 890 nM; against KRAS G12D:SOS1, 6.1 nM.

For `C[C@@H](CN1CCN(C)CC1)Oc1nc(N2CC3CCC(C2)N3)c2cc(Cl)c(-c3ccc(F)c4sc(N)nc34)c(F)c2n1` [Example E34, 4-(4-(3,8-diazabicyclo[3.2.1]octan-3-yl)-6-chloro-8-fluoro-2-(((S)-1-(4-methylpiperazin-1-yl)propan-2-yl)oxy)quinazolin-7-yl)-7-fluorobenzo[d]thiazol-2-amine], the IC50 on WT KRAS:SOS1 is 1350 nM; in assay [1], over 10000 nM; on KRAS G12D:SOS1, 15 nM.
